Test results: US12559475B2, “Tetrazine compound capable of having rapid cycloaddition reaction with non-strained olefinic boronic acid and biomedical application thereof” (NANJING UNIVERSITY, priority 2024, dated 2026)

Experiments:
HepG2 cells = test: Toxicity (MTT cell survival) in HepG2 cells; format: cell-based; conditions: for IC50: Homo sapiens, HepG2, 48 h incubation, 1% FBS DMEM, MTT
Experimental: Toxicity of the tetrazine Tz-2, the doxorubicin prodrug DOX-VBA, the addition product, and the doxorubicin DOX were first tested.
HepG2 cells were plated in a 96-well plate and attached overnight; 1% FBS DMEM was used as a culture medium on the next day, different concentrations of Tz-2, DOX-VBA, product, and DOX were then added to the culture medium, and incubation was performed at 37° C. for 48 h; and 50 μL 1×MTT was added, the reaction continued for 4 h, DMSO was added to remove the culture medium, and cell survival rates at different concentrations were tested to calculate IC50 values (the cell survival rates were shown in FIG. 6).

[1] = Reaction rate testing of tetrazine compounds and styryl boronic acid (HPLC); conditions: tetrazine 1 mM, styryl boronic acid 0.2 mM, methanol
Experimental: Specific implementation method: HPLC was used to test reaction rates by monitoring residual amounts of tetrazine compounds after different tetrazine compounds reacted with styryl boronic acid, where a molar concentration of the tetrazine compounds was 1 mM, and a molar concentration of styryl boronic acid was 0.2 mM, and a solvent was methanol solution.

[2] = Stability testing of tetrazine compounds in 10% FBS/DMEM (HPLC residual amount); format: physicochemical; conditions: 100 µM, 2.5% DMSO
Experimental: Specific implementation method: The tetrazine compounds were respectively dissolved in a 10% FBS/DMEM solution at a concentration of 100 µM (the solution contained 2.5% DMSO as a solubilizing agent), and residual amounts of tetrazine compounds were monitored via HPLC after 6 hours and 24 hours to analyze the stability of tetrazine compounds in a biological environment.

[3] = Molecular release testing of tetrazine compound and styryl boronic acid derivative VBA-2 (NMR); conditions: Tz-2 + VBA-2, 0.02 M, deuterated DMSO:deuterated H2O=9:1, NMR
Experimental: Specific implementation method: the tetrazine compound Tz-2 and the styryl boronic acid derivative VBA-2 were dissolved in a deuterated solution (deuterated DMSO:deuterated H2O=9:1) at a molar concentration of 0.02 M. Reactions after 5 min, 12 h and 24 h were tested using a 500 MHz a nuclear magnetic resonance analyzer, and characteristic signal peaks of reactants and products on a hydrogen spectrum were tested to assess molecular release.

Question: With `COc1cccc2c1C(=O)c1c(O)c3c(c(O)c1C2=O)C[C@@](O)(C(=O)CO)C[C@@H]3O[C@H]1C[C@H](N)[C@H](O)[C@H](C)O1` [DOX, doxorubicin, reference compound] as the molecule, how does the IC50 (HepG2 cells) read?
Answer: Its IC50 is 500 nM.

Question: With `COc1ccnc(-c2nnc(-c3ccccc3)nn2)c1C` [Tz-1] as the molecule, how does the k2 [1] read?
Answer: The k2 was 56 M⁻¹ s⁻¹.

Question: And the “residual amount of tetrazine compound” value ([2]; 6 h)?
Answer: Its value is 99%.

Question: What about the “residual amount of tetrazine compound” value ([2]; 24 h) of the same molecule?
Answer: The value was 85%.

Question: With `COc1ccnc(-c2nnc(-c3ccccn3)nn2)c1C` [Tz-2] as the molecule, how does the k2 [1] read?
Answer: The k2 was 168 M⁻¹ s⁻¹.

Question: What about the “toxicity (in words)” value (HepG2 cells; HepG2 cells) of the same molecule?
Answer: The value was “non-toxic”.

Question: What about the IC50 (HepG2 cells) of the same molecule?
Answer: Its IC50 is greater than 100000 nM.

Question: What about the “residual amount of tetrazine compound” value ([2]; 6 h) of the same molecule?
Answer: Its value is 55%.

Question: What about the “residual amount of tetrazine compound” value ([2]; 24 h) of the same molecule?
Answer: Its value is 17%.

Question: And the “time in which half of the benzylamine molecules were released” value [3]?
Answer: The value was 12 h.

Question: For `COc1ccnc(-c2nnc(-c3ccc(NC(=O)OC(C)(C)C)cc3)nn2)c1C` [Tz-10], which k2 [1] is on record?
Answer: Its k2 is 45 M⁻¹ s⁻¹.

Question: And the “residual amount of tetrazine compound” value ([2]; 6 h)?
Answer: The value was 99%.

Question: What about the “residual amount of tetrazine compound” value ([2]; 24 h) of the same molecule?
Answer: Its value is 92%.

Question: For `COc1ccnc(-c2nnc(-c3ccc(CNC(=O)OC(C)(C)C)cc3)nn2)c1C` [Tz-11], which k2 [1] is on record?
Answer: The k2 was 23 M⁻¹ s⁻¹.

Question: And the “residual amount of tetrazine compound” value ([2]; 6 h)?
Answer: The value was 99%.

Question: What about the “residual amount of tetrazine compound” value ([2]; 24 h) of the same molecule?
Answer: The value was 92%.

Question: Which results are given for `COc1c(C)cnc(-c2nnc(-c3ccccc3)nn2)c1C` [Tz-16]?
Answer: k2 [1]: 28 M⁻¹ s⁻¹; residual amount of tetrazine compound ([2]; 6 h): 99%; residual amount of tetrazine compound ([2]; 24 h): 90%

Question: What does the source list for `c1ccc(-c2nnc(-c3ccccn3)nn2)nc1` [Tz-Py, reference compound]?
Answer: k2 [1]: 1.4 M⁻¹ s⁻¹; residual amount of tetrazine compound ([2]; 6 h): 35%; residual amount of tetrazine compound ([2]; 24 h): 1%
